Results published in patent US20220054513A1, “COMBINATION COMPOSITIONS COMPRISING A BETA-LACTAMASE INHIBITOR” (VenatoRx Pharmaceuticals, Inc., priority 2018, published 2022).

Tested on: cefepime-resistant clinical isolates of Enterobacteriaceae and P. aeruginosa
Test: neutropenic murine thigh infection model, human simulated regimens
Type: in vivo, mice
Details: human simulated regimen (HSR) of 2 g cefepime alone q8 h; at 24 h; 30 strains
Source text: The 2 g:0.5 g dose of cefepime:Compound 1 which is planned for clinical efficacy studies is supported by neutropenic murine thigh infection model studies using 30 cefepime-resistant clinical isolates of Enterobacteriaceae and P. aeruginosa.

CO/N=C(\C(=O)N[C@@H]1C(=O)N2C(C(=O)[O-])=C(C[N+]3(C)CCCC3)CS[C@H]12)c1csc(N)n1 [FEP, cefepime]
growth on average compared to the T=0 control: approximately 2.7 log10 CFU/thigh
